Data set [1] deals with dermal fibroblasts. The following applies: Verdoorn et al. 1986; cited from earlier work.
In data set [2] the test system is dermal fibroblasts. As to conditions: Verdoorn et al. 1986; cited from earlier work. The source holds these as a separate data set.
Data set [3] relates to dermal fibroblasts. As to conditions: Verdoorn et al. 1986; cited from earlier work. This is another data set of the same source.
Data set [4] has as its system rabbit dermal fibroblasts. Put plainly: Fibroblast-mediated collagen gel contraction (shrinkage) assay. The class given is cell-based. As to conditions: for % Contraction: 200 ug type IV collagen peptide, no peptide 36%; for % Contraction / Contraction: cells preincubated 1 hr, gel surface area by planimetry at day 7; for Effect on fibroblast-mediated collagen gel contraction: gels cast with and without fibronectin; for Contraction: 200 ug laminin peptide, no peptide 67%. The text has this:
As indicated above, proliferative vitreoretinopathy is the result of the proliferation and migration of fibroblasts, retinal pigment epithelial cells, and glial cells, and their organization into vitreous strands and epiretinal membranes. The vitreous strands and epiretinal membranes can contract, resulting in traction retinal detachment. The ability of rabbit dermal fibroblasts to cause contraction was examined in the collagen gel shrinkage model, which serves as an in vitro model of proliferative vitreoretinopathy (see Verdoon et al., Arch. Ophthalmol., 104, 1216-1219 (1986)). The ability of synthetic polypeptides derived from ECM molecules to inhibit contraction in the collagen gel shrinkage model using rabbit fibroblasts was also examined.
Fifty thousand rabbit dermal fibroblasts were suspended in 250 μl of fibroblast assay medium and mixed with 250 μl of Vitrogen and dispensed into the wells of a 48-well plate. The cells were preincubated with the desired polypeptide concentration (25, 50, 100, or 200 ug/ml) for one hour at 37° C. before mixing with the Vitrogen. Gelling occurred within 20 minutes after transfer of the mix of cell suspension and Vitrogen into an incubator at 37° C. with 5% CO2. The gels were overlaid with 250 μl of growth medium. All conditions were tested in duplicate wells. After 24 hours, the gels were detached from the sides of the wells by sweeping with a 27-gauge needle inserted at the interface between the plastic well and the gel (FIGS. 6-8).
Contraction of collagen gels was quantitated by use of planimetry. The gels were observed daily over the seven day period following detachment for evidence of contraction. The plates were photographed at the end of the seven days to record the amount of contraction. The contraction was measured by recording the area of each gel in each well off the photograph using a computer scanner. The area of the gels with polypeptide was compared to the area of the gels without the polypeptide. Planimetry is a two-dimensional measurement. […] The planimetry measurements accordingly underestimate the degree of contraction that actually occurred.
The collagen gels were cast with or without the incorporation of 25 ug/ml of fibronectin. […] These controls using deactivated cells indicate that cell growth and proliferation are required to effect gel shrinkage.

For data set [5] the following is noted: 3H-heparin; cited from earlier work.
The subject of data set [6] is proliferative vitreoretinopathy rabbit model. The following applies: cited from earlier work.
The subject of data set [7] is proliferative vitreoretinopathy in rabbits. Briefly: Rabbit model of experimental proliferative vitreoretinopathy (intravitreal fibroblast injection). The class given is in vivo. Here is the method:
The rabbit model for proliferative vitreoretinopathy is described in Thresher et al., Graefe's Arch. Clin. Exp. Ophthalmol., 221, 192-198 (1984). Adult Dutch Belted rabbits of both sexes were used in the study. All animals were treated according to ARVO Animal Use Guidelines. All eyes were examined prior to initiation of a study and only clinically normal animals were used.
The rabbits were anesthetized using an intramuscular injection of a mix of ketamine (30 mg/kg) and xylazine (5 mg/kg). Pupils were dilated with Mydriacyl (Tropicamide) 1% and Neosynephrine 2.5% topical drops. Topical conjunctival anesthesia was provided with Proparacaine […] drops. All procedures were performed in an approved animal surgical facility. […] This site was used for subsequent intraocular injections, preventing iatrogenic retinal tears at the injection site. An intravitreal injection of 0.4 cc millipore-filtered 100% perfluoropropane gas was administered to produce a gas compression vitrectomy. Once the expansile gas bubble had absorbed, 5-10×10^4 dermal rabbit fibroblasts with or without 200 μg of polypeptide (injection volume-0.1 cc) were injected through a 27 gauge needle into the vitreous cavity. Under indirect ophthalmoscopic visualization, the tip of the needle was placed over the optic nerve head and the cells were injected in this location.
The animals were then observed for the development of proliferative vitreoretinopathy. The final stage of retinal detachment was scored from 0 to 7 using the standard grading scale shown below (see Hida et al., Graefe's Arch. Clin. Exp. Ophthalmol., 225, 1763-1769 (1991)).
Retinal photographs were taken with a wide field fundus camera (Canon) to document the final stage of retinal detachment. Animals were sacrificed while under deep anesthesia with an intravenous injection of 1 cc of euthanasia solution. The eyes were then immediately enucleated, fixed in 10% formalin, paraffin embedded, sectioned at 7 microns, and stained with hematoxylin and eosin for histology.
Three weeks following peripheral retinal cryopexy and gas compression vitrectomy, rabbit fibroblasts incubated for 1 hr with 200 ug of laminin polypeptide R37, type IV collagen polypeptide Hep-II, or BSS (balanced saline solution; control) were injected intravitreally. One eye of each rabbit received polypeptide incubated fibroblasts and the other eye received the control cells. Eyes were examined every three days, and the degree of retinal detachment was graded on the standard scale described above.

The subject of a further data set is rabbit eye. Put plainly: Intravitreal polypeptide toxicity in rabbit eye (ERG, clinical observations, histology). The format is in vivo. Here is the method:
The toxicity of the polypeptides was determined by three techniques:
ERG. Electroretinograms (ERG) were carried out as a functional indicator of toxicity of a polypeptide treatment. Polypeptides were injected at 200 ug and 400 ug (twice the dose that inhibited proliferative vitreoretinopathy), and ERG measurements were performed three times in each eye at various times post-injection (1 hr to 6 weeks).
Clinical observations. Observation by indirect ophthalmoscopy and slit lamp examination were performed to probe for evidence of toxicity.
Histology. Following ERG and clinical observations, the eyes were immediately enucleated, fixed in 10% formalin, paraffin embedded, sectioned at 7 microns, and stained with hematoxylin and eosin.

The subject of data set [8] is rabbit conjunctival fibroblasts. Put plainly: Conjunctival fibroblast proliferation, tritiated thymidine assay. The class given is cell-based. As to conditions: day 4; mitomycin-C at 100 μg/ml (positive control); no drug control 8537 cpm. The text has this: The failure of gluacoma treatment by filtration surgery is most often caused by scarring. Scarring requires fibroblast proliferation and fibrosis of the subconjunctive space. Proliferation of rabbit conjunctival fibroblasts was studied using the tritiated thymidine assay, which serves as an in vitro model of fibroblast proliferation in the rabbit eye (see Invest. Ophthalmol. Vis. Sci., 31, 1848-1855 (1990)). The ability of synthetic polypeptides derived from ECM molecules to inhibit conjuntival fibroblast proliferation was examined in this model.
Rabbit conjunctival fibroblasts were plated into 96-well microtiter plates at 1000 cells/well in 200 microliters of standard fibroblast culture media. Standard fibroblast culture media include Eagle's minimal essential medium containing 15% fetal bovine serum, penicillin G 100 IU/ml, streptomycin 100 μg/ml, and amphotericin B 0.25 μg/ml. Hep-II was added to the wells in concentrations ranging from 1 μg/ml to 1000 μg/ml after removing an equal volume of media to maintain 200 microliters/well. The peptide was used in concentrations of 1, 3, 7, 10, 25, 50, 100, 200, 300, 400, 500, 600, 800 and 1000 microgram/ml (experiments 1-14, respectively in FIG. 26). The tissue culture plates were incubated at 37° C. in a humidified atmosphere of 5% carbon dioxide. Two separate sets experiments were conducted. Each set of experiments was done in replicates of four. In the first set of experiments, tritiated thymidine was added 22 hours prior to each harvesting on days 4, 5, and 8. In the second set of experiments, tritiated thymidine was added 22 hours prior to each harvesting on days 4, 5, and 6. Wells with vehicle but no test compound served as negative controls (experiment #15) and cells with mitomycin-C at 100 μg/ml served as positive controls (experiment #16).

No end group written: not given here.

Consider `COc1cccc2c1C(=O)c1c(O)c3c(c(O)c1C2=O)C[C@@](O)(C(C)=O)C[C@@H]3O[C@H]1C[C@H](N)[C@H](O)[C@H](C)O1` [daunomycin], for which the “Inhibition of gel contraction” value in the data set with dermal fibroblasts [1] was “not found to inhibit contraction”. Besides, in the data set with dermal fibroblasts [2], the “Inhibition of cell proliferation” value is “most effective”. In addition, the “Inhibition of cell migration” value with dermal fibroblasts [3] is “most inhibited”.

As to TAGSCLRKFSTM [Hep-I, TAGSCLRKFSTM], in data set [4], the “% Contraction” value worked out at 33%. The Heparin binding result in data set [5] was “reported to bind heparin”.

Consider “SPPRRARVT [FN-C/H-IV, Ser-Pro-Pro-Arg-Arg-Ala-Arg-Val-Thr]”, for which, in data set [4], the “Effect on fibroblast-mediated collagen gel contraction” value is on record as “Inhibition of gel contraction was also observed”. The Heparin binding entry in data set [5] is “known to bind”.

Regarding “TSLRKALLHAPTGSYSDGQ [R35, TSLRKALLHAPTGSYSDGQ]”, in data set [4], the Contraction was determined as 63%. In addition, in [5], the Heparin binding result is recorded as “do not bind”.

`CC1(C)O[C@@H]2C[C@H]3[C@@H]4CCC5=CC(=O)C=C[C@]5(C)[C@@]4(F)[C@@H](O)C[C@]3(C)[C@]2(C(=O)CO)O1` [triamcinolone acetonide]: the “Incidence of retinal detachment” value in [6] (eyes injected with triamcinolone acetonide, reduced from 93%) is 75%.

As for “GVKGDKGNPGWPGAP [IV-H1, GVKGDKGNPGWPGAP]”, in [4], the “% Contraction” value was 72% and the “Effect on fibroblast-mediated collagen gel contraction” value is recorded as “frequently found to promote contraction”.

Take `CC(=O)O[C@H]1C(=O)[C@@]2(C)[C@H]([C@H](OC(=O)c3ccccc3)[C@]3(O)C[C@H](OC(=O)[C@H](O)[C@@H](NC(=O)c4ccccc4)c4ccccc4)C(C)=C1C3(C)C)[C@]1(OC(C)=O)CO[C@@H]1C[C@@H]2O` [taxol]: the “Inhibition of cell proliferation” value in the data set with dermal fibroblasts [2] was “most effective”. The “Traction retinal detachment induced by injected chorioretinal fibroblasts” value in data set [6] (0.5 μg intravitreal injection) is on record as “reduces traction retinal detachment”.

As for WQPPRARI [FN-C/H-V], in data set [5], the Heparin binding result is “known to bind”.

Turning to YRVRVTPKEKTGPMKE [FN-C/H-III], the Heparin binding entry in data set [5] was “known to bind”.

As for `C=C1[C@@H](C)[C@H]2[C@H](Cc3ccccc3)NC(=O)[C@]23OC(=O)/C=C/[C@H](O)CCC[C@@H](C)C/C=C/[C@H]3[C@@H]1O` [cytochalasin B], the “Inhibition of cell proliferation” value with dermal fibroblasts [2] was “inhibited cell proliferation”. In addition, the “Inhibition of cell migration” value with dermal fibroblasts [3] is given as “minimal effect on cell migration”.

Regarding `COc1cc2c(c(OC)c1OC)-c1ccc(OC)c(=O)cc1[C@@H](NC(C)=O)CC2` [colchicine], in the data set on dermal fibroblasts [1], the “Inhibition of gel contraction” value is given as “most effective at inhibiting gel contraction”. Also, the “Inhibition of cell proliferation” value with dermal fibroblasts [2] is listed as “inhibited cell proliferation”.

Consider KNLEISRSTFDLLRNSYGVRK [R26], for which, in data set [4], the Contraction was 45% and the “Effect on fibroblast-mediated collagen gel contraction” value was “Inhibition of gel contraction was also observed”. The Heparin binding entry in data set [5] was “do not bind”.

Take KEGYKVRLDLNITLEFRTTSK [R38]: in data set [4], the Contraction was 74% and the “Effect on fibroblast-mediated collagen gel contraction” value is on record as “frequently found to promote contraction”. Moreover, the Heparin binding entry in [5] was “bind”.

On to “KATPMLKMRTSFHGCIK [R37, Lys-Ala-Thr-Pro-Met-Leu-Lys-Met-Arg-Thr-Ser-Phe-His-Gly-Cys-Ile-Lys]”, for which the Contraction in data set [4] is given as 12%. For the same molecule, the “Effect on fibroblast-mediated collagen gel contraction” value in [4] was “most potent inhibitory effects on contraction”. Moreover, in data set [7] (200 ug with 100,000 fibroblasts, three weeks after fibroblast injection), the “Retina appearance (stage 0-7 scale), fundus photograph” value is “normal (Stage 0)”. The “# Detached Retinas (%)” value in data set [7] (Expt II: 200 ug, 50,000 cells, RD staged at day 21, control 40%) is reported as 0%; in data set [7] (Expt III: 200 ug, 100,000 cells, RD staged at day 7, control 100%), 14%; in data set [7] (Expt IV: 200 ug, 80,000 cells, RD staged at day 21, control 100%), 25%. The “# Detached Retinas” value worked out at 0 in [7] (Expt II: 200 ug, 50,000 cells, RD staged at day 21, total 5 eyes, control 2 of 5); 1 in [7] (Expt III: 200 ug, 100,000 cells, RD staged at day 7, total 7 eyes, control 7 of 7); 1 in data set [7] (Expt IV: 200 ug, 80,000 cells, RD staged at day 21, total 4 eyes, control 3 of 3). For the same molecule, the “Degree of retinal detachment” value in [7] (fibroblasts incubated 1 hr with 200 ug polypeptide, intravitreal) is on record as “inhibited the degree of retinal detachment”. Also, the Retinal histopathology result in the data set with rabbit eye (following injection of 400 ug) is “normal rabbit retinal histopathology”. In addition, in the data set on rabbit eye (intravitreal injection of 200 ug or 400 ug), the “Toxic effects by clinical observations, histopathology or ERG” value is reported as “No toxic effects”. In [5], the Heparin binding result is given as “bind”.

As for `CO[C@@]12[C@H](COC(N)=O)C3=C(C(=O)C(C)=C(N)C3=O)N1C[C@@H]1N[C@@H]12` [mitomycin-C, reference compound], in [4] (fibroblasts pretreated with mitomycin C, data not shown), the “Gel contraction by pretreated fibroblasts” value is given as “did not cause gel contraction”. The Thymidine uptake in [8] is 375 cpm.

For YEKPGSPPREVVPRPRPGV [FN-C/H-I], the Heparin binding result in data set [5] is on record as “known to bind”.

KNNQKSEPLIGRKKT [FN-C/H-IIa]: in data set [5], the Heparin binding result was “known to bind”.

As to GEFYFDLRLKGDK [Hep-III, GEFYFDLRLKGDK], the “% Contraction” value in data set [4] was 33%. For the same molecule, in data set [5], the Heparin binding entry is listed as “reported to bind heparin”.

Source of the values: patent publication US6013628A, “Method for treating conditions of the eye using polypeptides” (Regents of the University of Minnesota, priority 1995, dated 2000).
